The text below walks through data of patent US11504330B2, “Formulation comprising particles containing a water-swellable or water-soluble polymeric component and a lipid component” (PERORA GMBH, priority 2014, dated 2022).

This data set in a line: Tryptophan release / dissolution in fasted-state simulated gastric fluid (FaSSGF). The data set is classed as physicochemical. The note with it: 30 mg powder in 22 mL FaSSGF, 37° C., agitated.

Method: FaSSGF was prepared by dissolving 1 g of NaCl (Sigma-Aldrich) in 450 mL of water, adding 30 mg of SIF powder (biorelvant.com), adjusting the pH to 2.0 with 0.1 N HCl (Sigma-Aldrich) and adding water to a final volume of 500 mL.
30 mg of tryptophan powder were suspended in 22 mL FaSSGF at 37° C. and agitated (shaker ST5 from CAT, Germany). Aliquots were removed at time intervals of 5 min, and tryptophan concentration was quantified using absorption measurement at a wavelength of 280 nm in a NanoDrop® 2000 device (Thermo Scientific, USA).

As to `N[C@@H](Cc1c[nH]c2ccccc12)C(=O)O` [Tryptophan, L-Tryptophan], the “time after which quantitatively dissolved” value is 10 min.
